pIC50: −log10 of the molar value. Where only a bound is given, the exact number is not on record here.

What all share (assay type): biochemical
The target of one assay is human cathepsin L (Homo sapiens, UniProt P07711). As to the kind of experiment: Assay of cathepsin L inhibitory activity in vitro. The note with it: IC50 against human cathepsin L; substrate Z-Phe-Arg-AMC 10 μM; 25° C.; read-out: Cat-L. The procedure:
Assay Method of Cathepsin L Inhibitory Activity In Vitro
0.01 ng/μL was the final concentration of Cathepsin L in the enzyme reaction, and Z-Phe-Arg-AMC with the final concentration of 10 μM was added into the reaction system as substrate, in the reaction system the test compound and enzyme had been incubated at 25° C. for 15 min.

The target of a further assay is human cathepsin S (Homo sapiens, UniProt P25774). Kind of assay: Assay of cathepsin S inhibitory activity in vitro. The note with it: IC50 against human cathepsin S; substrate Z-VVR-AMC 20 μM; 25° C.; read-out: Cat-S. The procedure: Assay Method of Cathepsin S Inhibitory Activity In Vitro
Chain of human cathepsin S (P25774 115-331): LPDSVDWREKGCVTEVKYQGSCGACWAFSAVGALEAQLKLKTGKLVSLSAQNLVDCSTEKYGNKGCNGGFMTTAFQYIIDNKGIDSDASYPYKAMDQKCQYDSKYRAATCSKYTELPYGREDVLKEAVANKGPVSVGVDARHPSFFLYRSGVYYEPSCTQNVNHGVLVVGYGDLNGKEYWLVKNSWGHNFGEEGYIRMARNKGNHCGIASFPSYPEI
0.25 ng/L was the final concentration of Cathepsin S in the enzyme reaction, and Z-VVR-AMC with the final concentration of 20 μM was added into the reaction system as substrate, in the reaction system the test compound and enzyme had been incubated at 25° C. for 15 min.

A further assay addresses T1, human cathepsin K (Homo sapiens, UniProt P43235).
T1 sequence (P43235 115-329): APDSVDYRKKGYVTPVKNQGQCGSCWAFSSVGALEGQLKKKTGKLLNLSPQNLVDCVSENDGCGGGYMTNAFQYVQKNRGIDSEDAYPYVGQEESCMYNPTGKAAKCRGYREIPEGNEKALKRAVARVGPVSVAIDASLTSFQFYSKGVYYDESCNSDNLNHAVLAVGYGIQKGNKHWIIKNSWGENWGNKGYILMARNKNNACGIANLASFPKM
As to the kind of experiment: Assay of cathepsin K inhibitory activity in vitro. The note with it: IC50 against human cathepsin K; substrate Z-Phe-Arg-AMC 10 μM; 25° C.; read-out: Cat-K. The procedure: Assay Method of Cathepsin K Inhibitory Activity In Vitro
Using 45000-fold diluted cathepsin K solution and 10 μM Z-Phe-Arg-AMC as substrate, the test compound and cathepsin K solution were incubated at 25° C. for 15 min in a 15 μL reaction system according to the optimized experimental condition.

The next assay has as its target human cathepsin B (Homo sapiens, UniProt P07858). Kind of assay: Assay of cathepsin B inhibitory activity in vitro. The note with it: IC50 against human cathepsin B; substrate Z-Phe-Arg-AMC 10 μM; 25° C.; read-out: Cat-B. The procedure:
Assay Method of Cathepsin B Inhibitory Activity In Vitro
0.01 ng/μL was the final concentration of Cathepsin B in the enzyme reaction, and Z-Phe-Arg-AMC with the final concentration of 10 μM was added into the reaction system as substrate, in the reaction system the test compound and enzyme had been incubated at 25° C. for 15 min.

Chain of human cathepsin L (P07711 114-333): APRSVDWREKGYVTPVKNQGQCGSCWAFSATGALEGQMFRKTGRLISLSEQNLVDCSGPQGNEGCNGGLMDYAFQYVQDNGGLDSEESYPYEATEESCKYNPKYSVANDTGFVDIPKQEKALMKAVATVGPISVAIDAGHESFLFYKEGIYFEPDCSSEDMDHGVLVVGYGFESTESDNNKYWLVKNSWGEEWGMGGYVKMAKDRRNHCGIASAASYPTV

Regarding `N#CC1(NC(=O)C2(NC(=O)c3cc4ccc(-c5ccc(C6(O)CCOCC6)cc5)cc4o3)CCC(F)(F)CC2)CC1` [Example 22, N-(1-((1-cyanocyclopropyl)carbamoyl)-4,4-difluorocyclohexyl)-6-(4-(4-hydroxytetrahydro-2H-pyran-4-yl)phenyl)benzofuran-2-carboxamide], the pIC50 is less than 5.00 on human cathepsin L, 5.74 on human cathepsin S, 8.74 at human cathepsin K and 5.51 at human cathepsin B.
In the same order, the values of `N#CC1(NC(=O)C2(NC(=O)c3cc4ccc(-c5ccc(C(O)C(N)=O)cc5)cc4o3)CCC(F)(F)CC2)CC1` (stereo not drawn) [Example 90] are less than 5.00, 6.77, 8.82 and 5.92.
In the case of `CS(=O)(=O)c1ccc(-c2ccc3cc(C(=O)NC4(C(=O)NC5(C#N)CC5)CCCCC4)oc3c2)cc1` [Example 62], the pIC50 at human cathepsin L is less than 5.00; at human cathepsin S it was 5.40; at human cathepsin K, 8.86; on human cathepsin B it was 6.06.
The like results for `COc1cc(-c2ccc3cc(C(=O)NC4(C(=O)NC5(C#N)CC5)CCC(F)(F)CC4)oc3c2)ccc1OCC(C)(C)O` [Example 44, N-(1-((1-cyanocyclopropyl)carbamoyl)-4,4-difluorocyclohexyl)-6-(4-(2-hydroxy-2-methylpropoxy)-3-methoxyphenyl)benzofuran-2-carboxamide] were, in that order, less than 5.00, less than 5.00, 8.63 and 5.10.
As for `N#CC1(NC(=O)C2(NC(=O)c3cc4ccc(-c5ccc(N6CCOCC6=O)cc5)cc4o3)CCC(F)(F)CC2)CC1` [Example 28, N-(1-((1-cyanocyclopropyl)carbamoyl)-4,4-difluorocyclohexyl)-6-(4-(3-oxomorpholino)phenyl)benzofuran-2-carboxamide], the pIC50 on human cathepsin L is less than 5.00; on human cathepsin S it was 5.72; at human cathepsin K, 8.92; on human cathepsin B, 5.66.
For `N#CC1(NC(=O)C2(NC(=O)c3cc4ccc(-c5ccc(C6(O)COC6)nc5)cc4o3)CCCCC2)CC1` [Example 77], the pIC50 at human cathepsin L is no more than 5.00; at human cathepsin S, 5.98; at human cathepsin K, 9.17; on human cathepsin B it was 6.75.
`N#CC1(NC(=O)C2(NC(=O)c3cc4ccc(-c5ccc6c(c5)OCO6)cc4o3)CCC(F)(F)CC2)CC1` [Example 91]: the pIC50 on human cathepsin L is less than 5.00; on human cathepsin S, less than 5.00; on human cathepsin K, 8.89; on human cathepsin B it was 5.60.
Regarding `N#CC1(NC(=O)C2(NC(=O)c3cc4ccc(-c5ccc(C6(O)CCS(=O)(=O)CC6)cc5)cc4o3)CCC(F)(F)CC2)CC1` [Example 27, N-(1-((1-cyanocyclopropyl)carbamoyl)-4,4-difluorocyclohexyl)-6-(4-(4-hydroxy-1,1-dioxidotetrahydro-2H-thiopyran-4-yl)phenyl)benzofuran-2-carboxamide], the pIC50 on human cathepsin L is less than 5.00; on human cathepsin S, 6.40; at human cathepsin K it was 9.08; on human cathepsin B, 5.68.
In the case of `CS(=O)(=O)Nc1ccc(-c2ccc3cc(C(=O)NC4(C(=O)NC5(C#N)CC5)CCC(F)(F)CC4)oc3c2)cc1` [Example 96], the pIC50 was less than 5.00 on human cathepsin L, 5.67 on human cathepsin S, 9.28 at human cathepsin K and 6.15 on human cathepsin B.
Regarding `N#CC1(NC(=O)C2(NC(=O)c3cc4ccc(-c5csc(N6CCS(=O)(=O)CC6)n5)cc4o3)CCCCC2)CC1` [Example 67], the pIC50 was less than 5.00 on human cathepsin L, 6.00 at human cathepsin S, 9.19 on human cathepsin K and 6.27 at human cathepsin B.
Take `COc1cc(-c2ccc3cc(C(=O)NC4(C(=O)NC5(C#N)CC5)CCC(F)(F)CC4)oc3c2)ccc1S(C)(=O)=O` [Example 97]: the pIC50 on human cathepsin L is less than 5.00; on human cathepsin S it was 5.64; at human cathepsin K, 8.86; on human cathepsin B it was 6.45.
`N#CC1(NC(=O)C2(NC(=O)c3cc4ccc(-c5csc(C6(O)COC6)n5)cc4o3)CCCCC2)CC1` [Example 78]: the pIC50 on human cathepsin L is no more than 5.00; at human cathepsin S, 5.68; at human cathepsin K it was 9.02; at human cathepsin B, 6.55.
Take `N#CC1(NC(=O)C2(NC(=O)c3cc4ccc(-c5ccc(C6(N)COC6)cc5)cc4o3)CCC(F)(F)CC2)CC1` [Example 14, 6-(4-(3-aminooxetan-3-yl)phenyl)-N-(1-((1-cyanocyclopropyl)carbamoyl)-4,4-difluorocyclohexyl)benzofuran-2-carboxamide]: the pIC50 on human cathepsin L was 5.51; on human cathepsin S it was 6.59; on human cathepsin K it was 9.42; on human cathepsin B it was 7.07.
The like results for `N#CC1(NC(=O)C2(NC(=O)c3cc4ccc(-c5ccc(C(O)CO)cc5)cc4o3)CCC(F)(F)CC2)CC1` (stereo not drawn) [Example 6, N-(1-((1-cyanocyclopropyl)carbamoyl)-4,4-difluorocyclohexyl)-6-(4-(1,2-dihydroxyethyl)phenyl)benzofuran-2-carboxamide] were, in that order, less than 5.00, 6.21, 8.51 and 6.12.
In the same order, the values of `N#CC1(NC(=O)C2(NC(=O)c3cc4ccc(-c5csc(N6CCNC6=O)n5)cc4o3)CCCCC2)CC1` [Example 65] are less than 5.00, less than 5.00, 8.89 and 6.16.
As for `COc1cc(-c2ccc3cc(C(=O)NC4(C(=O)NC5(C#N)CC5)CCC(F)(F)CC4)oc3c2)ccc1C(=O)N1CCOCC1` [Example 40, N-(1-((1-cyanocyclopropyl)carbamoyl)-4,4-difluorocyclohexyl)-6-(3-methoxy-4-(morpholine-4-carbonyl)phenyl)benzofuran-2-carboxamide], the pIC50 on human cathepsin L was less than 5.00; at human cathepsin S, less than 5.00; on human cathepsin K, 9.02; at human cathepsin B, 5.65.
Take `N#CC1(NC(=O)C2(NC(=O)c3cc4ccc(-c5csc(N6CCCC6=O)n5)cc4o3)CCCCC2)CC1` [Example 63]: the pIC50 on human cathepsin L is less than 5.00; at human cathepsin S it was less than 5.00; at human cathepsin K it was 8.80; on human cathepsin B, 5.92.
As for `N#CC1(NC(=O)C2(NC(=O)c3cc4ccc(-c5ccc6c(c5)OCCO6)cc4o3)CCC(F)(F)CC2)CC1` [Example 33, N-(1-((1-cyanocyclopropyl)carbamoyl)-4,4-difluorocyclohexyl)-6-(2,3-dihydrobenzo[b][1,4]dioxin-6-yl)benzofuran-2-carboxamide], the pIC50 at human cathepsin L is less than 5.00; at human cathepsin S it was less than 5.00; at human cathepsin K, 8.53; on human cathepsin B it was 5.64.
Regarding `N#CC1(NC(=O)C2(NC(=O)c3cc4ccc(-c5ccc6ncoc6c5)cc4o3)CCC(F)(F)CC2)CC1` [Example 32, 6-(benzo[d]oxazol-6-yl)-N-(1-((1-cyanocyclopropyl)carbamoyl)-4,4-difluorocyclohexyl)benzofuran-2-carboxamide], the pIC50 on human cathepsin L was less than 5.00; on human cathepsin S, 5.48; at human cathepsin K it was 8.72; on human cathepsin B, 5.12.
Turning to `CS(=O)(=O)c1cccc(-c2ccc3cc(C(=O)NC4(C(=O)NC5(C#N)CC5)CCCCC4)oc3c2)c1` [Example 64], the pIC50 at human cathepsin L is less than 5.00; on human cathepsin S, 6.20; at human cathepsin K, 9.06; at human cathepsin B it was 6.43.
Consider `N#CC1(NC(=O)C2(NC(=O)c3cc4ccc(-c5ccc(C6(O)CCOCC6)cc5)cc4o3)CCCCC2)CC1` [Example 75], for which the pIC50 was less than 5.00 on human cathepsin L, 5.39 on human cathepsin S, 8.74 at human cathepsin K and 6.31 on human cathepsin B.
In the same order, the values of `CS(=O)(=O)c1ccc(-c2ccc3cc(C(=O)NC4(C(=O)NC5(C#N)CC5)CCCCCC4)oc3c2)cc1` [Example 81] are less than 5.00, 5.80, 8.87 and 5.62.
The like results for `CS(=O)(=O)c1ccc(-c2ccc3cc(C(=O)NC4(C(=O)NC5(C#N)CC5)CCCC4)oc3c2)cc1` [Example 70] were, in that order, less than 5.00, 5.30, 8.07 and 6.28.
As for `CS(=O)(=O)c1nc(-c2ccc3cc(C(=O)NC4(C(=O)NC5(C#N)CC5)CCCCC4)oc3c2)cs1` [Example 66], the pIC50 at human cathepsin L is less than 5.00; on human cathepsin S, 6.01; at human cathepsin K it was 9.09; on human cathepsin B, 6.27.
